Reference: US20260274832A1, “COMPOUNDS AND THEIR USE IN TREATING CANCER” (ASTRAZENECA AB, priority 2023, published 2026)

How the values were obtained:
[1] = molecular target: T1, AR (AR-full length) in LNCaP cells (Homo sapiens, UniProt P10275, T878A); test: LNCaP Androgen Receptor Imaging Assay (immunofluorescence of endogenous nuclear AR); assay type: cell-based; settings: 24 h incubation; for DC50: concentration giving 50% of maximum degradation of AR per curve fit, single experiment or average of two or more
T1 construct: the prostate cancer cell line LNCaP (expressing AR-full length); endogenous in cells; host or cells: LNCaP
T1 sequence (P10275 whole entry T878A): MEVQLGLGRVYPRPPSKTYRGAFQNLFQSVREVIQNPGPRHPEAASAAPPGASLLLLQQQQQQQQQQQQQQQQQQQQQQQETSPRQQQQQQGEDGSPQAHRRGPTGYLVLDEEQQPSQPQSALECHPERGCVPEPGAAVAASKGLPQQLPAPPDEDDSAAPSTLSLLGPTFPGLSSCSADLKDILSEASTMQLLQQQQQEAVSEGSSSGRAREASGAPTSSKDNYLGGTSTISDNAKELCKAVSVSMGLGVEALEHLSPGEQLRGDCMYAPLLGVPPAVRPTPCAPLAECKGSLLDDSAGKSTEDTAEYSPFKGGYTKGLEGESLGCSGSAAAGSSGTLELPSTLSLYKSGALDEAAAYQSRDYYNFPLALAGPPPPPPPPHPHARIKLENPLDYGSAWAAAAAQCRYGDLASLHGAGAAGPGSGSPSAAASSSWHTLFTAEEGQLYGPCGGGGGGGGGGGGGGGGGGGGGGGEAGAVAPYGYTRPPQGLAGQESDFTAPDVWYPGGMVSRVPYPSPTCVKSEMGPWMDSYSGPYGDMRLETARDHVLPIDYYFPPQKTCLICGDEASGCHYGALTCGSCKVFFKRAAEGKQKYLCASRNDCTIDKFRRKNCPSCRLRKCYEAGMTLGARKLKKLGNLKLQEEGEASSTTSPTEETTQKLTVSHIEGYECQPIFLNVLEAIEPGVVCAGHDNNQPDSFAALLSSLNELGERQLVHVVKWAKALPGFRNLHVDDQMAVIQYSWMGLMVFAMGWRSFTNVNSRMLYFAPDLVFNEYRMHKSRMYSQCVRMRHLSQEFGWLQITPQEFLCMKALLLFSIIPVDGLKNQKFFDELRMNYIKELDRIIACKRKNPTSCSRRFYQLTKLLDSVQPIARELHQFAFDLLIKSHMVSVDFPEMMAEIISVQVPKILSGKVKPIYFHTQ
T1 sequence (Q96SW2 whole entry partner): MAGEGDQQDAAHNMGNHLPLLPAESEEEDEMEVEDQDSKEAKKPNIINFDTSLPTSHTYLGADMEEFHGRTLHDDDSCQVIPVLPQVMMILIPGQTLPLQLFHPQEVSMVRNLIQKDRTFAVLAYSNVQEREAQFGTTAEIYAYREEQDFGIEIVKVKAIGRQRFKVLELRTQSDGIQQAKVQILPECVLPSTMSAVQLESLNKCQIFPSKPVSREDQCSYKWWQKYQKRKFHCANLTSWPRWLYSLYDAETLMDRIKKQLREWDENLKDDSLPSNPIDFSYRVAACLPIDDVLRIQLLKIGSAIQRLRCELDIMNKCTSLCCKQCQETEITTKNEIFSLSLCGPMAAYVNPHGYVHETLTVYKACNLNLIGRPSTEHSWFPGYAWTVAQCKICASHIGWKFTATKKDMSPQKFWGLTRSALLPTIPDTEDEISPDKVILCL
How it was run: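 Endogenous nuclear AR level was imaged by immunofluorescence after 24 h compound exposure (12-point dose response, 0.3% DMSO, 37° C./5% CO2) in LNCaP cells. Data were expressed as % of a 3 μM prior-art AR PROTAC control and fitted (bell fit where a hook appeared) to give DC50 and maximum degradation Dmax.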

[2] = molecular target: T2, AR (L702H) in LNCaP cells (Homo sapiens, UniProt P10275, L702H/T878A); test: LNCaP Androgen Receptor L702H Imaging Assay (LNCaP cells engineered by CRISPR/Cas9); assay type: cell-based; settings: LNCaP cells with AR L702H mutation, 24 h incubation; for DC50: concentration giving 50% of maximum degradation of AR (L702H) per curve fit
T2 construct: engineered to introduce the mutation L702H into the AR gene using CRISPR/Cas9; endogenous in cells; host or cells: LNCaP cells edited by CRISPR/Cas9 at the AR gene
T2 sequence (P10275 whole entry L702H/T878A): as the sequence (P10275 whole entry T878A) above, with L702H counted along it
T2 sequence (Q96SW2 whole entry partner): as the sequence (Q96SW2 whole entry partner) above
How it was run: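 AR (L702H) degradation, expressed as DC50 and Dmax from curve fits normalized to a positive degrader control, was measured by high-content imaging of anti-AR immunofluorescence. The engineered LNCaP line was dosed over 12 concentrations for 24 h, 0.3% DMSO final, before PFA fixation.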

LNCaP AR Degradation Dmax ([1]; maximum degradation observed, normalized as % of positive control (prior art AR PROTAC at 3 μM)) [%] | LNCaP AR (L702H) Degradation Dmax ([2]; maximum degradation observed, normalized as % of positive control) [%] | SMILES | DC50 [1] [nM] | DC50 [2] [nM] | Dmax ([1]; LNCaP, maximum degradation observed, normalized as % of positive control (prior art AR PROTAC at 3 μM)) [%] | Dmax ([2]; LNCaP, maximum degradation observed, normalized as % of positive control) [%]
105 | 106 | COc1nc(N2CCN(CC3CCN(c4ccc([C@@H]5CCCN(c6ccc(Cl)c7c(C#N)c[nH]c67)C5)cc4)CC3)CC2)cc2c1C(=O)N(C1CCC(=O)NC1=O)C2 (single isomer, unassigned) [Example 40, 4-Chloro-7-[(3S)-3-(4-{4-[(4-{2-[(3S*)-2,6-dioxopiperidin-3-yl]-4-methoxy-3-oxo-2,3-dihydro-1H-pyrrolo[3,4-c]pyridin-6-yl}piperazin-1-yl)methyl]piperidin-1-yl}phenyl)piperidin-1-yl]-1H-indole-3-carbonitrile] | 7 | 12 | – | –
– | – | Cc1ccc(C2CCCN(c3cccc(OCCCCN4CCN(c5ccc6c(c5)CN(C5CCC(=O)NC5=O)C6=O)CC4)c3)C2)c2[nH]cc(C#N)c12 (single isomer, unassigned) [Example 80, 7-{(3R*)-1-[3-(4-{4-[2-(2,6-dioxopiperidin-3-yl)-1-oxo-2,3-dihydro-1H-isoindol-5-yl]piperazin-1-yl}butoxy)phenyl]piperidin-3-yl}-4-methyl-1H-indole-3-carbonitrile] | 38 | 3100 | 64 | 100
